From PubChem BioAssay (NCI)
Where “and” joins values, the source holds several entries; their conditions need not be identical. Equal entries are not always repeated.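 Cells were grown in 96-well plates and exposed to each compound for 48 hours at five concentrations; endpoints were interpolated linearly between bracketing concentrations, or set to the highest concentration if not reached. GI50 is the concentration that inhibits growth by half. TGI denotes the concentration required for complete inhibition of growth.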

Experiments:
Experiment in all cases: DTP human tumour cell line panel, 48 h
786-0 renal = tested on: 786-0 renal
KM12 colon = tested on: KM12 colon
LOX IMVI melanoma = tested on: LOX IMVI melanoma
SN12C renal = tested on: SN12C renal
OVCAR-3 ovarian = tested on: OVCAR-3 ovarian
DU-145 prostate = tested on: DU-145 prostate
MOLT-4 leukemia = tested on: MOLT-4 leukemia
NCI/ADR-RES ovarian = tested on: NCI/ADR-RES ovarian
HS 578T breast = tested on: HS 578T breast
TK-10 renal = tested on: TK-10 renal
OVCAR-5 ovarian = tested on: OVCAR-5 ovarian
T-47D breast = tested on: T-47D breast
OVCAR-8 ovarian = tested on: OVCAR-8 ovarian
NCI-H226 lung = tested on: NCI-H226 lung
UACC-62 melanoma = tested on: UACC-62 melanoma
MDA-MB-231 breast = tested on: MDA-MB-231 breast
UACC-257 melanoma = tested on: UACC-257 melanoma
MDA-MB-435 = tested on: MDA-MB-435
HL-60(TB) leukemia = tested on: HL-60(TB) leukemia
SK-MEL-5 melanoma = tested on: SK-MEL-5 melanoma
SK-MEL-28 melanoma = tested on: SK-MEL-28 melanoma
MCF7 breast = tested on: MCF7 breast
SF-295 CNS = tested on: SF-295 CNS
HCT-15 colon = tested on: HCT-15 colon
BT-549 breast = tested on: BT-549 breast
HCT-116 colon = tested on: HCT-116 colon
CAKI-1 renal = tested on: CAKI-1 renal
HCC-2998 colon = tested on: HCC-2998 colon
SR leukemia = tested on: SR leukemia
A549 NSCLC = tested on: A549 NSCLC
RPMI-8226 leukemia = tested on: RPMI-8226 leukemia
SNB-75 CNS = tested on: SNB-75 CNS
NCI-H522 lung = tested on: NCI-H522 lung
ACHN renal = tested on: ACHN renal
IGROV1 ovarian = tested on: IGROV1 ovarian
SNB-19 CNS = tested on: SNB-19 CNS
SK-OV-3 ovarian = tested on: SK-OV-3 ovarian
HOP-62 NSCLC = tested on: HOP-62 NSCLC
COLO 205 colon = tested on: COLO 205 colon
A498 renal = tested on: A498 renal
K-562 leukemia = tested on: K-562 leukemia
CCRF-CEM leukemia = tested on: CCRF-CEM leukemia
NCI-H460 lung = tested on: NCI-H460 lung
SF-268 CNS = tested on: SF-268 CNS
HT29 colon = tested on: HT29 colon
U251 CNS = tested on: U251 CNS
NCI-H23 lung = tested on: NCI-H23 lung
SK-MEL-2 melanoma = tested on: SK-MEL-2 melanoma
OVCAR-4 ovarian = tested on: OVCAR-4 ovarian
SF-539 CNS = tested on: SF-539 CNS
M14 melanoma = tested on: M14 melanoma
PC-3 prostate = tested on: PC-3 prostate
HOP-92 NSCLC = tested on: HOP-92 NSCLC
EKVX NSCLC = tested on: EKVX NSCLC
SW-620 colon = tested on: SW-620 colon
RXF 393 renal = tested on: RXF 393 renal
UO-31 renal = tested on: UO-31 renal
MALME-3M melanoma = tested on: MALME-3M melanoma

With COc1cccc(Nc2ncnn3ccc(CN4CC[C@@H](N)[C@H](O)C4)c23)c1 the GI50 (786-0 renal) was 1.08 µM and 1.18 µM, the TGI (786-0 renal) was 20.6 µM and > 10 µM and the GI50 (KM12 colon) was 3.31 µM and 2.88 µM. The TGI (KM12 colon) was 15.3 µM and > 10 µM, the GI50 (LOX IMVI melanoma) was 4.58 µM and 1.33 µM and the TGI (LOX IMVI melanoma) was 21.1 µM and > 5.65 µM. For the same molecule, the GI50 (SN12C renal) was 0.265 µM and 0.304 µM, the TGI (SN12C renal) was 18.5 µM and > 10 µM and the GI50 (OVCAR-3 ovarian) was 3.92 µM and 1.63 µM. For the same molecule, the TGI (OVCAR-3 ovarian) was greater than 60.8 µM, the GI50 (DU-145 prostate) was 1.59 µM and 0.927 µM and the TGI (DU-145 prostate) was greater than 100 µM. The GI50 (MOLT-4 leukemia) was 5.68 µM and 2.26 µM, the TGI (MOLT-4 leukemia) was 33.2 µM and > 10 µM and the GI50 (NCI/ADR-RES ovarian) was 4.32 µM and 2.93 µM. The TGI (NCI/ADR-RES ovarian) was 39.7 µM and > 10 µM, the GI50 (HS 578T breast) was 0.698 µM and 0.395 µM and the TGI (HS 578T breast) was 5.18 µM and 2.69 µM. For the same molecule, the GI50 (TK-10 renal) was 0.0322 µM and 0.0167 µM, the TGI (TK-10 renal) was 1.65 µM and 1.5 µM and the GI50 (OVCAR-5 ovarian) was 0.467 µM and 0.357 µM. The TGI (OVCAR-5 ovarian) was 32.5 µM and > 10 µM, the TGI (T-47D breast) was 29.2 µM and > 6.86 µM and the GI50 (OVCAR-8 ovarian) was 2.73 µM and 1.66 µM. For the same molecule, the TGI (OVCAR-8 ovarian) was 40.3 µM and > 10 µM, the GI50 (NCI-H226 lung) was 2.66 µM and 1.38 µM and the TGI (NCI-H226 lung) was 13 µM and > 8.94 µM. For the same molecule, the GI50 (UACC-62 melanoma) was 20.4 µM and > 3.85 µM, the TGI (UACC-62 melanoma) was 41.3 µM and > 9.23 µM and the GI50 (MDA-MB-231 breast) was 2.3 µM and 1.54 µM. For the same molecule, the TGI (MDA-MB-231 breast) was 25.9 µM and > 10 µM, the GI50 (UACC-257 melanoma) was 17.5 µM and > 5.79 µM and the TGI (UACC-257 melanoma) was 34 µM and > 10 µM. For the same molecule, the GI50 (MDA-MB-435) was 14.8 µM and > 4.71 µM, the TGI (MDA-MB-435) was 29.9 µM and > 10 µM and the GI50 (HL-60(TB) leukemia) was 20.3 µM and > 4.71 µM. For the same molecule, the TGI (HL-60(TB) leukemia) was 41.1 µM and > 8.1 µM, the GI50 (SK-MEL-5 melanoma) was 14.5 µM and > 5.6 µM and the TGI (SK-MEL-5 melanoma) was 27.8 µM and > 10 µM. For the same molecule, the GI50 (SK-MEL-28 melanoma) was 17 µM and > 5.4 µM, the TGI (SK-MEL-28 melanoma) was 31.1 µM and > 10 µM and the GI50 (MCF7 breast) was 11.3 µM and > 4.2 µM. The TGI (MCF7 breast) was 24.5 µM and > 8.69 µM, the GI50 (SF-295 CNS) was 12.2 µM and > 5.6 µM and the TGI (SF-295 CNS) was 45.5 µM and > 10 µM. The GI50 (HCT-15 colon) was 3.24 µM and 2.15 µM, the TGI (HCT-15 colon) was 97.9 µM and > 10 µM and the GI50 (BT-549 breast) was 14.2 µM and > 4.68 µM. For the same molecule, the TGI (BT-549 breast) was 47.7 µM and > 7.41 µM, the GI50 (HCT-116 colon) was 6.69 µM and 2.55 µM and the TGI (HCT-116 colon) was 26.4 µM and > 6.8 µM. The GI50 (CAKI-1 renal) was 0.2 µM and 0.242 µM, the TGI (CAKI-1 renal) was 2.52 µM and > 4.35 µM and the GI50 (HCC-2998 colon) was 15.6 µM and > 3.65 µM. For the same molecule, the TGI (HCC-2998 colon) was 36.1 µM and > 9.59 µM, the GI50 (SR leukemia) was 5.19 µM and > 4.99 µM and the TGI (SR leukemia) was 40.7 µM and > 10 µM. For the same molecule, the GI50 (A549 NSCLC) was 2.22 µM and 0.928 µM, the TGI (A549 NSCLC) was 23.6 µM and > 7.05 µM and the GI50 (RPMI-8226 leukemia) was 20.9 µM and > 5.39 µM. The TGI (RPMI-8226 leukemia) was 68 µM and > 10 µM, the GI50 (SNB-75 CNS) was 0.102 µM and 0.043 µM and the TGI (SNB-75 CNS) was 0.808 µM and 0.49 µM. The GI50 (NCI-H522 lung) was 0.0245 µM and 0.0175 µM, the TGI (NCI-H522 lung) was 15.1 µM and > 4.56 µM and the GI50 (ACHN renal) was 0.0305 µM and 0.0373 µM. For the same molecule, the TGI (ACHN renal) was 6.96 µM and 7.74 µM, the GI50 (IGROV1 ovarian) was 0.407 µM and 0.0561 µM and the TGI (IGROV1 ovarian) was 6.79 µM and 2.73 µM. The GI50 (SNB-19 CNS) was 14.4 µM and 8.98 µM, the TGI (SNB-19 CNS) was 97.7 µM and > 10 µM and the GI50 (SK-OV-3 ovarian) was 0.0386 µM and 0.0322 µM. For the same molecule, the TGI (SK-OV-3 ovarian) was 0.772 µM and 0.129 µM, the GI50 (HOP-62 NSCLC) was 4.22 µM and 0.506 µM and the TGI (HOP-62 NSCLC) was 27.3 µM and > 10 µM. The GI50 (COLO 205 colon) was 3.73 µM and 3.13 µM, the TGI (COLO 205 colon) was 18.2 µM and > 6.18 µM and the GI50 (A498 renal) was 1.12 µM and 0.861 µM. For the same molecule, the TGI (A498 renal) was 4.72 µM and 3.75 µM, the GI50 (K-562 leukemia) was 0.285 µM and 0.168 µM and the TGI (K-562 leukemia) was 10.2 µM and > 10 µM. For the same molecule, the GI50 (CCRF-CEM leukemia) was 25.2 µM and > 4.58 µM, the TGI (CCRF-CEM leukemia) was greater than 100 µM and the GI50 (NCI-H460 lung) was 18.5 µM and > 4.66 µM. For the same molecule, the TGI (NCI-H460 lung) was 68.1 µM and > 9.16 µM, the GI50 (SF-268 CNS) was 4.42 µM and 1.62 µM and the TGI (SF-268 CNS) was 99.7 µM and > 6.67 µM. The GI50 (HT29 colon) was 8.67 µM and > 2.25 µM, the TGI (HT29 colon) was greater than 56.6 µM and the GI50 (U251 CNS) was 14.4 µM and > 5.46 µM. The TGI (U251 CNS) was 49.3 µM and > 10 µM, the GI50 (NCI-H23 lung) was 2.53 µM and 3.05 µM and the TGI (NCI-H23 lung) was 18.4 µM and > 10 µM. For the same molecule, the GI50 (SK-MEL-2 melanoma) was 19.9 µM and > 4.7 µM, the TGI (SK-MEL-2 melanoma) was 39.8 µM and > 7.19 µM and the GI50 (OVCAR-4 ovarian) was 13.3 µM and > 5.11 µM. For the same molecule, the TGI (OVCAR-4 ovarian) was 55.4 µM and > 10 µM, the GI50 (SF-539 CNS) was 1.72 µM and 1.08 µM and the TGI (SF-539 CNS) was 13.5 µM and > 7.44 µM. The GI50 (M14 melanoma) was 20.4 µM and > 5.03 µM, the TGI (M14 melanoma) was 36 µM and > 10 µM and the GI50 (PC-3 prostate) was 15.2 µM and > 2.39 µM. For the same molecule, the TGI (PC-3 prostate) was greater than 100 µM, the GI50 (HOP-92 NSCLC) was 0.125 µM and 0.194 µM and the TGI (HOP-92 NSCLC) was 5.21 µM and > 6.86 µM. For the same molecule, the GI50 (EKVX NSCLC) was 0.0275 µM and 0.0282 µM, the TGI (EKVX NSCLC) was greater than 100 µM and the GI50 (SW-620 colon) was 17.7 µM and > 4.35 µM. The TGI (SW-620 colon) was 44.5 µM and > 10 µM, the GI50 (RXF 393 renal) was 0.601 µM and 0.405 µM and the TGI (RXF 393 renal) was 5.11 µM and 2.41 µM. For the same molecule, the GI50 (UO-31 renal) was 0.145 µM and 0.132 µM, the TGI (UO-31 renal) was 5.02 µM and 4.12 µM and the GI50 (MALME-3M melanoma) was 17.6 µM and > 4.83 µM. For the same molecule, the TGI (MALME-3M melanoma) was 35.2 µM and > 10 µM.
